According to patent publication US9096500B2, “Acyl sulfonamide compounds” (Pfizer Limited, priority 2010, dated 2015):
pIC50: −log10 of the molar value.

Molecular target: T1, Nav1.7 (or SCN9A) channel (Homo sapiens, UniProt Q15858)
T1 construct: expressed in transfected cells
Assay: Nav1.7 (hSCN9A) electrophysiology assay, PatchXpress platform
Format: cell-based
Conditions: estimated IC50 from single point electrophysiology data, HEK cells stably expressing hSCN9A, held at V1/2 of inactivation, read-out: Nav1.7 EIC50
Protocol: The ability of the compounds of formula (I) to block the Nav1.7 (or SCN9A) channel were measured using the assay described below.
Human Embryonic Kidney (HEK) cells were transfected with an hSCN9A construct using lipofectamine reagent (Invitrogen), using standard techniques. Cells stably expressing the hSCN9A constructs were identified by their resistance to G-418 (400 μg/ml). Clones were screened for expression using the whole-cell voltage-clamp technique.
HEK cells stably transfected with hSCN9A were maintained in DMEM medium supplemented with 10% heat-inactivated fetal bovine serum and 400 μg/ml G-418 in an incubator at 37° C. with a humidified atmosphere of 10% CO2. For HTS, cells were harvested from flasks by trypsinization and replated in an appropriate multi-well plate (typically 96 or 384 wells/plate) such that confluence would be achieved within 24 hours of plating. For electrophysiological studies, cells were removed from the culture flask by brief trypsinization and re-plated at low density onto glass cover slips. Cells were typically used for electrophysiological experiments within 24 to 72 hours after plating.
Cover slips containing HEK cells expressing hSCN9A were placed in a bath on the stage of an inverted microscope and perfused (approximately 1 ml/minutes) with extracellular solution of the following composition: 138 mM NaCl, 2 mM CaCl2, 5.4 mM KCl, 1 mM MgCl2, 10 mM glucose, and 10 mM HEPES, pH 7.4, with NaOH. […] The osmolarity of the extracellular and intracellular solutions was 300 mOsm/kg and 295 mOsm/kg, respectively. All recordings were made at room temperature (22-24° C.) using AXOPATCH 200B amplifiers and PCLAMP software (Axon Instruments, Burlingame, Calif.).
hSCN9A currents in HEK cells were measured using the whole-cell configuration of the patch-clamp technique (Hamill et al., 1981). Uncompensated series resistance was typically 2 to 5 mega ohms and >85% series resistance compensation was routinely achieved. […] Current records were acquired at 20 to 50 KHz and filtered at 5 to 10 KHz.
HEK cells stably transfected with hSCN9A were viewed under Hoffman contrast optics and placed in front of an array of flow pipes emitting either control or compound-containing extracellular solutions. All compounds were dissolved in dimethyl sulfoxide to make 10 mM stock solutions, which were then diluted into extracellular solution to attain the final concentrations desired. […] The voltage-dependence of inactivation was determined by applying a series of depolarizing prepulses (8 sec long in 10 mV increments) from a negative holding potential. The voltage was then immediately stepped to 0 mV to assess the magnitude of the sodium current. Currents elicited at 0 mV were plotted as a function of prepulse potential to allow estimation of the voltage at which 50% of the channels were inactivated (midpoint of inactivation or V1/2). Compounds were tested for their ability to inhibit hSCN9A sodium channels by activating the channel with a 20 msec voltage step to 0 mV following an 8 second conditioning prepulse to the empirically determined V1/2. Compound effect (% inhibition) was determined by difference in current amplitude before and after application of test compounds. […] Inhibition values <20% and >80% were excluded from the calculation.
Electrophysiological assays were conducted with PatchXpress 7000 hardware and associated software (Molecular Devices Corp). All assay buffers and solutions were identical to those used in conventional whole-cell voltage clamp experiments described above. hSCN9A cells were grown as above to 50%-80% confluency and harvested by trypsinization. Trypsinized cells were washed and resuspended in extracellular buffer at a concentration of 1×10^6 cells/ml. The onboard liquid handling facility of the PatchXpress was used for dispensing cells and application of test compounds.

T1 sequence (Q15858 whole entry): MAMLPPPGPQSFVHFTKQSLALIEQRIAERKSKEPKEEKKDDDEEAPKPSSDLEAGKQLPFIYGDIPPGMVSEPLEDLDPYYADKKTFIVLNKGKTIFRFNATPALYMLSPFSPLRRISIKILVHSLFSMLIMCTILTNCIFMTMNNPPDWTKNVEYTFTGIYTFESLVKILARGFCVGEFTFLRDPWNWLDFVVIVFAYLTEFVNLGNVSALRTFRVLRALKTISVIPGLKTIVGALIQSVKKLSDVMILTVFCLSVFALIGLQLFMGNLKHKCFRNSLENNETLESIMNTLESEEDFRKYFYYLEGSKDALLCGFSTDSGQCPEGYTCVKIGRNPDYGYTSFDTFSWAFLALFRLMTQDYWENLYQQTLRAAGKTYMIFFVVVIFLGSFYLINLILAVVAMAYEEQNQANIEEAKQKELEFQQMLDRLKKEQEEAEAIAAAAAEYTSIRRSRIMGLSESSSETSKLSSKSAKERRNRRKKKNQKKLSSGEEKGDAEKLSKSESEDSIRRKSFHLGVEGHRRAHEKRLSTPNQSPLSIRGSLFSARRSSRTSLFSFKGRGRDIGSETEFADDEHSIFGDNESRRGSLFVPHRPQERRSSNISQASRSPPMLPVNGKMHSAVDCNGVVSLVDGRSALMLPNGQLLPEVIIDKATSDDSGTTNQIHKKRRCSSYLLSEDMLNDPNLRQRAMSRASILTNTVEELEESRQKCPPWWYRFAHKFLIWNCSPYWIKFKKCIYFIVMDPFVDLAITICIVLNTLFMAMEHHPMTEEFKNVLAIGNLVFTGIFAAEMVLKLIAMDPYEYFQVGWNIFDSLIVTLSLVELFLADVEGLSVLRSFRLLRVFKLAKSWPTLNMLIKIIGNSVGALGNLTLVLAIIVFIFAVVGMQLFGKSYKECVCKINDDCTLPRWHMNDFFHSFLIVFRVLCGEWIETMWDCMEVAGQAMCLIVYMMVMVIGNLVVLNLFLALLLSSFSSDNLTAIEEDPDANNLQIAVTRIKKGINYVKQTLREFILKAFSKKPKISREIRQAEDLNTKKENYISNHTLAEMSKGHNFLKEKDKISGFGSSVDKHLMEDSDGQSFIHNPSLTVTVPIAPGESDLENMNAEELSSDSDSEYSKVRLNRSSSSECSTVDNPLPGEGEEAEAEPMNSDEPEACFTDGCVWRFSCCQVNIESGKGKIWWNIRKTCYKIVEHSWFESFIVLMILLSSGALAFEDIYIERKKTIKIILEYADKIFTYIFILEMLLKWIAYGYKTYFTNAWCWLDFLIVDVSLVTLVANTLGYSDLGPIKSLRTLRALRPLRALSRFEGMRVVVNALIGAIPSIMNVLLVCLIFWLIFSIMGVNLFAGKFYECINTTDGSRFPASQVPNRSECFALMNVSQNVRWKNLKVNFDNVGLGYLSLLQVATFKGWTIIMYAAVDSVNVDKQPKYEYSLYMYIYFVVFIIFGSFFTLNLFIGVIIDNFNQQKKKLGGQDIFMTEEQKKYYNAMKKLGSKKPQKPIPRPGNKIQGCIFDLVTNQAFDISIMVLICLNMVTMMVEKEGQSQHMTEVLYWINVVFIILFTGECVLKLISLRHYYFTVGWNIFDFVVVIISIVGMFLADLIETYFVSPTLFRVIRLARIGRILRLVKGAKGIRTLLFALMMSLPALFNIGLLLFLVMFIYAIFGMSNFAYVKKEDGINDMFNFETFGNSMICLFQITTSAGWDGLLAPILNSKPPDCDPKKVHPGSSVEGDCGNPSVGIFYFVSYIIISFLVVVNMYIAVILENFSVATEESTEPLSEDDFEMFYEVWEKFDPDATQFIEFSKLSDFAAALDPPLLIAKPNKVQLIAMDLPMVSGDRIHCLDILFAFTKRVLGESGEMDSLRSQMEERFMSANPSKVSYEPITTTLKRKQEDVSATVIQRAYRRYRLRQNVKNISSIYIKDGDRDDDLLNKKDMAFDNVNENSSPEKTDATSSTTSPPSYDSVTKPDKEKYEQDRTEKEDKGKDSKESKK

| SMILES | pIC50 |
| --- | --- |
| CS(=O)(=O)NC(=O)c1cc(Cl)c(OCc2ccc(Cl)cc2)cc1F [Example 84, 5-chloro-4-[(4-chlorobenzyl)oxy]-2-fluoro-N-(methylsulfonyl)benzamide] | 5.19 |
| CS(=O)(=O)NC(=O)c1cc(Cl)c(OCc2cccc(Cl)c2)cc1F [Example 86, 5-chloro-4-[(3-chlorobenzyl)oxy]-2-fluoro-N-(methylsulfonyl)benzamide] | 6.24 |
| COc1ccc(COc2ccc(C(=O)NS(C)(=O)=O)cc2)cc1 [Example 89, 4-[(4-methoxybenzyl)oxy]-N-(methylsulfonyl)benzamide] | < 5.52 |
| COc1ccc(OCc2cc(F)c(C(=O)NS(C)(=O)=O)cc2F)cc1F [Example 97, 2,5-difluoro-4-[(3-fluoro-4-methoxyphenoxy)methyl]-N-(methylsulfonyl)benzamide] | 5.82 |
| COc1cc(Cl)cc(OCc2cc(F)c(C(=O)NS(C)(=O)=O)cc2F)c1 [Example 98, 4-[(3-chloro-5-methoxyphenoxy)methyl]-2,5-difluoro-N-(methylsulfonyl)benzamide] | 6.85 |
| CS(=O)(=O)NC(=O)c1cc(F)c(COc2ccc3cc(C#N)ccc3c2)cc1F [Example 99, 4-{[(6-cyano-2-naphthyl)oxy]methyl}-2,5-difluoro-N-(methylsulfonyl)benzamide] | 6.09 |
| Cc1ccc(Cl)cc1OCc1cc(F)c(C(=O)NS(C)(=O)=O)cc1F [Example 100, 4-[(5-chloro-2-methylphenoxy)methyl]-2,5-difluoro-N-(methylsulfonyl)benzamide] | 6.41 |
| CS(=O)(=O)NC(=O)c1cc(F)c(COc2ccc(C#N)c(C(F)(F)F)c2)cc1F [Example 101, 4-{[4-cyano-3-(trifluoromethyl)phenoxy]methyl}-2,5-difluoro-N-(methylsulfonyl)benzamide] | 5.72 |
| Cc1c(OCc2cc(F)c(C(=O)NS(C)(=O)=O)cc2F)cccc1-n1cccn1 [Example 102, 2,5-difluoro-4-{[2-methyl-3-(1H-pyrazol-1-yl)phenoxy]methyl}-N-(methylsulfonyl)benzamide] | < 5.52 |
| Cc1cc(Cl)cc(OCc2cc(F)c(C(=O)NS(C)(=O)=O)cc2F)c1 [Example 105, 4-[(3-chloro-5-methylphenoxy)methyl]-2,5-difluoro-N-(methylsulfonyl)benzamide] | 7.00 |
| CN1CCC(c2cccc(OCc3cc(F)c(C(=O)NS(C)(=O)=O)cc3F)c2)CC1 [Example 106, 2,5-difluoro-4-{[3-(1-methylpiperidin-4-yl)phenoxy]methyl}-N-(methylsulfonyl)benzamide] | 5.04 |
| CC(C)c1cccc(OCc2cc(F)c(C(=O)NS(C)(=O)=O)cc2F)c1 [Example 107, 2,5-difluoro-4-[(3-isopropylphenoxy)methyl]-N-(methylsulfonyl)benzamide] | 6.48 |
| CS(=O)(=O)NC(=O)c1cc(F)c(COc2cc(F)cc(C(F)(F)F)c2)cc1F [Example 108, 2,5-difluoro-4-{[3-fluoro-5-(trifluoromethyl)phenoxy]methyl}-N-(methylsulfonyl)benzamide] | 7.06 |
| CS(=O)(=O)NC(=O)c1cc(F)c(COc2cccc(C(F)(F)F)c2)cc1F [Example 109, 2,5-difluoro-N-(methylsulfonyl)-4-{[3-(trifluoromethyl)phenoxy]methyl}benzamide] | 6.85 |
| CS(=O)(=O)NC(=O)c1cc(F)c(COc2cccc(F)c2F)cc1F [Example 111, 4-[(2,3-difluorophenoxy)methyl]-2,5-difluoro-N-(methylsulfonyl)benzamide] | < 6.00 |
| CN1CCN(c2cccc(OCc3cc(F)c(C(=O)NS(C)(=O)=O)cc3F)c2)CC1 [Example 113, 2,5-difluoro-4-{[3-(4-methylpiperazin-1-yl)phenoxy]methyl}-N-(methylsulfonyl)benzamide] | 4.96 |
| Cc1ccc(OCc2cc(F)c(C(=O)NS(C)(=O)=O)cc2F)cc1 [Example 115, 2,5-difluoro-4-[(4-methylphenoxy)methyl]-N-(methylsulfonyl)benzamide] | 6.21 |

Continued, values first:

| pIC50 | SMILES |
| --- | --- |
| 5.00 | CS(=O)(=O)NC(=O)c1ccc(OCc2ccccc2OC(F)(F)F)c(C#N)c1 [Example 76, 3-cyano-N-(methylsulfonyl)-4-{[2-(trifluoromethoxy)benzyl]oxy}benzamide] |
| < 5.52 | CS(=O)(=O)NC(=O)c1ccc(OCc2ccc(Cl)cc2)c(C#N)c1 [Example 77, 4-[(4-chlorobenzyl)oxy]-3-cyano-N-(methylsulfonyl)benzamide] |
| 6.41 | CS(=O)(=O)NC(=O)c1cc(Cl)c(OCc2ccccc2Cl)cc1F [Example 78, 5-chloro-4-[(2-chlorobenzyl)oxy]-2-fluoro-N-(methylsulfonyl)benzamide] |
| < 5.52 | CS(=O)(=O)NC(=O)c1ccc(OCc2cccc(C#N)c2)c(Cl)c1 [Example 80, 3-chloro-4-[(3-cyanobenzyl)oxy]-N-(methylsulfonyl)benzamide] |
| 5.26 | COc1cccc(COc2ccc(C(=O)NS(C)(=O)=O)cc2)c1 [Example 82, 4-[(3-methoxybenzyl)oxy]-N-(methylsulfonyl)benzamide] |
| 6.21 | CS(=O)(=O)NC(=O)c1cc(Cl)c(OCc2ccc(-c3ccccc3)cc2)cc1F [Example 83, 4-(biphenyl-4-ylmethoxy)-5-chloro-2-fluoro-N-(methylsulfonyl)benzamide] |
| 6.35 | CS(=O)(=O)NC(=O)c1ccc(OCc2ccc(-c3ccccc3)cc2)cc1 [Example 85, 4-(biphenyl-4-ylmethoxy)-N-(methylsulfonyl)benzamide] |
| 6.19 | CS(=O)(=O)NC(=O)c1cc(Cl)c(OCc2ccccc2-c2ccccc2)cc1F [Example 87, 4-(biphenyl-2-ylmethoxy)-5-chloro-2-fluoro-N-(methylsulfonyl)benzamide] |
| 5.21 | CS(=O)(=O)NC(=O)c1ccc(OCc2ccc(Cl)cc2)cc1 [Example 88, 4-[(4-chlorobenzyl)oxy]-N-(methylsulfonyl)benzamide] |
| < 5.52 | CS(=O)(=O)NC(=O)c1ccc(OCc2ccc(-n3cccn3)cc2)c(Cl)c1 [Example 90, 3-chloro-N-(methylsulfonyl)-4-{[4-(1H-pyrazol-1-yl)benzyl]oxy}benzamide] |
| 5.46 | CS(=O)(=O)NC(=O)c1ccc(OCc2cccc(Cl)c2)cc1 [Example 91, 4-[(3-chlorobenzyl)oxy]-N-(methylsulfonyl)benzamide] |
| 6.23 | CS(=O)(=O)NC(=O)c1ccc(OCc2cccc(OC(F)(F)F)c2)cc1 [Example 92, N-(methylsulfonyl)-4-{[3-(trifluoromethoxy)benzyl]oxy}benzamide] |
| < 5.52 | CS(=O)(=O)NC(=O)c1ccc(OCc2ccccc2-c2ccccc2)c(C#N)c1 [Example 93, 4-(biphenyl-2-ylmethoxy)-3-cyano-N-(methylsulfonyl)benzamide] |
| 5.37 | CS(=O)(=O)NC(=O)c1ccc(OCc2ccccc2-c2ccccc2)cc1 [Example 94, 4-(biphenyl-2-ylmethoxy)-N-(methylsulfonyl)benzamide] |
| 5.21 | CS(=O)(=O)NC(=O)c1cc(F)c(COc2ccc(C#N)c(C#N)c2)cc1F [Example 103, 4-[(3,4-dicyanophenoxy)methyl]-2,5-difluoro-N-(methylsulfonyl)benzamide] |
| 5.29 | CS(=O)(=O)NC(=O)c1cc(F)c(COc2ccc(C#N)cc2F)cc1F [Example 104, 4-[(4-cyano-2-fluorophenoxy)methyl]-2,5-difluoro-N-(methylsulfonyl)benzamide] |
| 5.66 | CS(=O)(=O)NC(=O)c1cc(F)c(COc2ccccc2F)cc1F [Example 110, 2,5-difluoro-4-[(2-fluorophenoxy)methyl]-N-(methylsulfonyl)benzamide] |
| 5.85 | CCc1ccccc1OCc1cc(F)c(C(=O)NS(C)(=O)=O)cc1F [Example 112, 4-[(2-ethylphenoxy)methyl]-2,5-difluoro-N-(methylsulfonyl)benzamide] |
